“Also recorded” adds a separate entry of the source.
Assays:
xanthine oxidase = settings: previous studies; cited from earlier work
[1] = tested on: dopaminergic neurons in the midbrain; experiment: Apoptosis in MPTP treated mice (In Situ Apoptosis Detection Kit, tyrosine hydroxylase staining); format: in vivo, mouse (C57BL/6); settings: MPTP 25 mg/kg ip twice; 48 hours
Protocol: After 48 hours the mice were perfused through the left ventricle with phosphate buffered saline (PBS) and then with 4% formaldehyde and 0.2% glutaraldehyde in PBS. The brains were coronally sliced into 50μ sections in a vibrating microtome.
To detect individual cells undergoing apoptosis, the In Situ Apoptosis Detection Kit (Oncor) was used. In this method, the fragmented DNA ends are extended with digoxigenin-dUTP. An anti-digoxigenin antibody then binds to the extension and is detected by a peroxidase reaction as previously described.
Tyrosine hydroxylase staining was done to identify dopaminergic neurons in the substantia nigra. The IgG polyclonal antibodies used were: a rabbit antibody to tyrosine hydroxylase; a sheep antibody to rabbit IgG and a rabbit antibody to horseradish peroxidase with the horseradish peroxidase coupled to the antibody^22. The tyrosine hydroxylase-stained brain slices were mounted on glass slides, dehydrated and coverslipped with balsam.

[2] = tested on: DNA in midbrain and striatum of C57BL/6 mice; experiment: Fluorimetric assay of DNA fragmentation in MPTP treated mice (Table 7); format: in vivo, mouse (C57BL/6); settings: for DNA damage, MIDBRAIN: MPTP 25 mg/kg ip twice, mean ± S.D.
From the text: A fifth group was the control. Brains were removed and the midbrain and striatum isolated.

24 month old mice = settings: mouse, in vivo, 500 mg/kg
[3] = tested on: poly(ADP-ribose) polymerase (PADPRP); settings: cited from earlier work
[4] = tested on: superoxide radicals produced by xanthine oxidase; experiment: Quenching of superoxide radicals (EPR); settings: 0.1M nicotinamide
Protocol: (§1) EPR spectra were measured at 23° and 100 kHz in a Bruker model ECS 106 spectrometer (Bruker, Karlsruhe, Germany). The EPR conditions were: modulation amplitude 0.483G, microwave power 20 mW and time constant 1.3 seconds.

ATP = settings: known effect of nicotinamide; cited from earlier work
[5] = tested on: hydroxyl radicals generated by the addition of 0.4M hydrogen peroxide; experiment: Quenching of hydroxyl radicals (EPR); settings: 0.1M nicotinamide
Protocol: as §1

C[n+]1ccc(-c2ccccc2)cc1 [MPP+]
substrate for xanthine oxidase (xanthine oxidase): can act as a substrate for xanthine oxidase

CN1CC=C(c2ccccc2)CC1 [MPTP, 1-methyl-4-phenyl-1,2,3,6-tetrahydropyridine]
apoptotic cells in dopaminergic neurons in the midbrain [1]: Apoptotic cells with shrunken and fragmented nuclei were detected
DNA fragmentation in the midbrain ([2]; 25 mg/kg MPTP twice, 48 hours, p<0.05): Significant DNA fragmentation
DNA damage, MIDBRAIN ([2]; 2 hours): 0.9108 ± 0.2233 per gram of tissue
DNA damage, MIDBRAIN ([2]; 48 hours, * p<0.05 vs control): 1.6373 ± 0.4567 per gram of tissue

NC(=O)c1cccnc1 [nicotinamide]
deaths (24 month old mice): one out of six
inhibition of poly(ADP-ribose) polymerase [3]: inhibits poly(ADP-ribose) polymerase; also recorded: weak inhibitor
quenching of superoxide radicals [4]: able to quench superoxide radicals
ATP levels (ATP): elevate NAD levels and ATP levels
quenching of hydroxyl radicals [5]: able to quench hydroxyl radicals
